The text below walks through data of US11325896B2, “Antagonists of the muscarinic acetylcholine receptor M4” (Vanderbilt University, priority 2017, dated 2022).

Molecules are shown by their SMILES.

One experiment concerns the target T1, human mAChR M4 (Homo sapiens, UniProt P08173).
T1 construct: expressed in transfected cells; host or cells: CHO-K1 (ATCC), stably co-expressing the chimeric G protein Gqi5
T1 sequence (P08173 1-479): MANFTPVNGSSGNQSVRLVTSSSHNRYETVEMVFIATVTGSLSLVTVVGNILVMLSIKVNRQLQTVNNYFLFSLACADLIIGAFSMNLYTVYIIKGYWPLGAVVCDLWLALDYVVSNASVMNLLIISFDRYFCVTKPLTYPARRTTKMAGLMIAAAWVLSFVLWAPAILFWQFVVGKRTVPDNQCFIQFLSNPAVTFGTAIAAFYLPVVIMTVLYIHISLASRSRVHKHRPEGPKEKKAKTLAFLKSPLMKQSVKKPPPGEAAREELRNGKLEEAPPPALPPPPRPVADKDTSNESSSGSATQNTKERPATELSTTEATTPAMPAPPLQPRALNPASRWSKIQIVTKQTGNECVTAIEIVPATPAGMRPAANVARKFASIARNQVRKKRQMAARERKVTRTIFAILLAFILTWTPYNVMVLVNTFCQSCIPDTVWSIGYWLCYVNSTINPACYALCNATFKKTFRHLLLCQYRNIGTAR
The experiment can be described thus: mAChR M4 cell-based functional assay (calcium flux, decrease of EC80 acetylcholine response). Particulars: for remaining activity at 30 µM: % ACh maximum at 30 μM, human M4, read-out: Emin; for IC50: M4/Gqi5/CHO-K1 cells, decrease of response to EC80 acetylcholine. The protocol:
Human or rat M4 cDNA, along with the chimeric G protein Gqi5, were transfected into Chinese hamster ovary (CHO-K1) cells purchased from the American Type Culture Collection using Lipofectamine2000. M4/Gqi5/CHO cells were grown in Ham's F-12 medium containing 10% heat-inactivated fetal bovine serum (FBS), 20 mM HEPES, 500 μg/mL G418 sulfate, and 200 μg/mL Hygromycin B.
For high throughput measurement of agonist-evoked increases in intracellular calcium, CHO-K1 cells stably expressing muscarinic receptors were plated in growth medium lacking G418 and hygromycin at 15,000 cells/20 μL/well in Greiner 384-well black-walled, tissue culture (TC)-treated, clear-bottom plates (VWR). Cells were incubated overnight at 37° C. and 5% CO2. The next day, cells were washed using an ELX 405 (BioTek) with assay buffer: the final volume was then aspirated to 20 μL. Next, 20 μL of a 2.3 μM stock of Fluo-4/acetoxymethyl ester (Invitrogen, Carlsbad, Calif.), prepared as a 2.3 mM stock in DMSO and mixed in a 1:1 ratio with 10% (w/v) Pluronic F-127 and diluted in assay buffer, was added to the wells and the cell plates were incubated for 50 min at 37° C. and 5% CO2. Dye was removed by washing with the ELX 405 and the final volume was aspirated to 20 μL. Compound master plates were formatted in a 10 point concentration-response curve (CRC) format (1:3 dilutions) in 100% DMSO with a starting concentration of 10 or 1 mM using a BRAVO liquid handler (Agilent). Test compound CRCs were then transferred to daughter plates (240 nL) using the Echo acoustic plate reformatter (Labcyte, Sunnyvale, Calif.) and then diluted into assay buffer (40 μL) to a 2× stock using a Thermo Fisher Combi (Thermo Fisher Scientific, Waltham, Mass.).
Calcium flux was measured using the Functional Drug Screening System (FDSS) 6000 or 7000 (Hamamatsu Corporation, Tokyo, Japan) as an increase in the fluorescent static ratio. Compounds were applied to cells (20 μL, 2×) using the automated system of the FDSS at 2 seconds into the protocol and the data were collected at 1 Hz. At 143 s, 10 μL of an EC20 concentration of the muscarinic receptor agonist acetylcholine was added (5×), followed by the addition of 12 μL of an EC80 concentration of acetylcholine at the 268 s time point (5×). Agonist activity was analyzed as a concentration-dependent increase in calcium mobilization upon compound addition. Positive allosteric modulator activity was analyzed as a concentration-dependent increase in the EC20 acetylcholine response. Antagonist activity was analyzed as a concentration-dependent decrease in the EC80 acetylcholine response; for the purposes of the tables herein, an IC50 (inhibitory concentration 50) was calculated as a concentration-dependent decrease of the response elicited by an EC80 concentration of acetylcholine. Concentration-response curves were generated using a four-parameter logistical equation in XLFit curve fitting software (IDBS, Bridgewater, N.J.) for Excel (Microsoft, Redmond, Wash.) or Prism (GraphPad Software, Inc., San Diego, Calif.) or the Dotmatics software platform (Dotmatics, Bishop's Stortford, UK).
Compounds were synthesized as described above. Activity (IC50 and Emin) was determined in the mAChR M4 cell-based functional assay as described above and the data are shown in Table 4. The compound numbers correspond to those used in Examples 1-4 and Tables 1-3.
In general terms: Calcium flux is commonly read through the fluorescence of an indicator in the cells.

The test system of a further experiment is M4 knockout mice. As to conditions: not the other four mAChR subtypes; cited from earlier work.
In experiment [1] the test system is haloperidol-induced catalepsy. The experiment can be described thus: haloperidol-induced catalepsy in mice. Format: in vivo. The source says: Furthermore, haloperidol-induced catalepsy, a model of parkinsonian motor disability, is reduced in M4 knockout mice as compared to wild-type controls. […] The reversal by scopolamine was uncommonly robust and more pronounced than we observe with agents targeting a number of other targets being evaluated for potential antiparkinsonian effects, including metabotropic glutamate (mGlu) receptors mGlu4 or mGlu5, A2A adenosine receptors, and NMDA receptors. […] Taken together with the extensive studies of M4 modulation of basal ganglia and motor function, these studies provide compelling evidence that M4 is the dominant mAChR subtype involved in the antiparkinsonian effects of non-selective mAChR antagonists and provide support for discovery and development of selective M4 antagonists for treatment of neurodegenerative disease such as PD, dystonia, tardive dyskinesia and other movement disorders.

By IC50 is commonly meant the concentration that gives 50% inhibition. `Cc1nn(C)cc1-c1ccc(OCC2CC3(C2)CN(CCC(C)(C)C)C3)nn1` [Compound 22, 6-(((6-(1,3-dimethyl-1H-pyrazol-4-yl)pyridazin-3-yl)oxy)methyl)-2-(3,3-dimethylbutyl)-2-azaspiro[3.3]heptane]: at human mAChR M4, the remaining activity at 30 µM was 4.6% and the IC50 was 1380 nM.

For the compound `Cc1nn(C)cc1-c1ccc(OCC2CC3(C2)CN(CC2CC4C=CC2C4)C3)nn1` (centres unmarked) [Compound 23, 2-(bicyclo[2.2.1]hept-5-en-2-ylmethyl)-6-(((6-(1,3-dimethyl-1H-pyrazol-4-yl)pyridazin-3-yl)oxy)methyl)-2-azaspiro[3.3]heptane], at human mAChR M4, the remaining activity at 30 µM is 3.7% and the 50% inhibitory concentration (IC50) was found to be 680 nM.

With `Cc1nn(C)cc1-c1ccc(OCC2CC3(C2)CN(Cc2ccccc2)C3)nn1` [Compound 24, 2-benzyl-6-(((6-(1,3-dimethyl-1H-pyrazol-4-yl)pyridazin-3-yl)oxy)methyl)-2-azaspiro[3.3]heptane], on human mAChR M4, the remaining activity at 30 µM is 36.4% and the IC50 turned out to be 10000 nM.

As to `Cc1cccnc1CN1CC2(CC(COc3ccc(-c4cn(C)nc4C)nn3)C2)C1` [Compound 25, 6-(((6-(1,3-dimethyl-1H-pyrazol-4-yl)pyridazin-3-yl)oxy)methyl)-2-((3-methylpyridin-2-yl)methyl)-2-azaspiro[3.3]heptane], at human mAChR M4, the remaining activity at 30 µM was 16.5% and the concentration for half-maximal inhibition (IC50) came out at 4200 nM.

Consider `CN1[C@@H]2C[C@@H](OC(=O)[C@H](CO)c3ccccc3)C[C@H]1[C@@H]1O[C@@H]12` [scopolamine], for which the locomotor-activating effects result in the experiment with M4 knockout mice is listed as “dramatically reduced”. Further, in experiment [1] (M4 KO mice), the “reduction of catalepsy induced by haloperidol” value is listed as “ineffective”. For the same compound, the “reversal of catalepsy induced by haloperidol” value in experiment [1] (WT mice) was “completely reversed”.
